# Measurements from patent publication US5102870A, “Treatment and prevention of oral mucositis with growth factors” (Schering AG, priority 1989, dated 1992).
# Test system: mucositis induced by the administration of 5-FU in hamsters
# Test: 5-fluorouracil plus mechanical irritation induced oral mucositis model, cheek pouch
# Type: in vivo, Golden Syrian hamsters
# Source text: An animal model for studying the acute effects of chemotherapy and radiotherapy in the oral cavity was developed by Dr. Stephen T. Sonis at Brigham and Women's Hospital, Boston, Mass. This model was particularly suited for testing the efficacy of growth factors on chemotherapy mucositis. This model utilizes an acute regimen of 5-fluorouracil (5-FU) combined with mechanical irritation to induce mucositis. More specifically, intraperitoneal (i.p.) injections of 5-fluorouracil were combined with superficial mechanical mucosal irritation to result in clinical breakdown of the oral mucosa as characterized by ulcerative mucositis in Golden Syrian hamsters. […] For these reasons, it was believed that this model would be extremely beneficial in evaluating growth factors to treat mucositis.
# The following experiment was performed to determine the effects of growth factors, specifically TGF-α, on the prevention and healing of mucositis induced by the administration of 5-FU in hamsters. Example 1:
# One hundred young male Golden Syrian hamsters were divided into four groups of 25 animals each. Beginning on day 0, animals received twice daily dosing of their cheek pouch buccal mucosa as follows:
# Medication was applied in a volume of 0.2 ml of Orabase per cheek pouch. The right cheek pouch was mechanically irritated by superficial scratching starting at day 0, daily until erythematous changes were noted. For most animals, such changes were noted by day 2 and mechanical irritation discontinued. For the remaining animals, mechanical irritation was stopped at day 3. Beginning on day 0, all of the animals received i.p. injections of 5-FU at a dose of 60 mg/kg body weight, with additional dosing on days 5 and 10. The animals were observed and weighed daily. On days 2, 4, 6, 8, 10, 12, 14, 16, 18 and 20, two animals were randomly sacrificed in each group. Cheek pouches were biopsied. The tissue was then placed in 10% formalin for histologic study according to established methods, and subsequently stained with hematoxylin and eosin. The following parameters were evaluated and scored: inflammatory infiltrate, degree of epithelial atropy, extent of epithelial breakdown/ulceration, mitotic activity at would margins and evidence of superficial/secondary infection. Two randomly selected hamsters from each group had their cheek pouches photographed daily. The animals were weighed and observed daily. […] Mucositis was scored using the following established scale:
# Grade 0--no evidence of ulcers or mucositis
# Grade 1--erythema but no ulceration
# Grade 2--1 or 2 small (<2 mm), single ulcers
# Grade 3--1 large or 3 or more small ulcers
# Grade 4--multiple large ulcers and/or involvement of 50% of pouch mucosal surface area
# The animals were evaluated both for the ability of TGF-α to delay the onset and reduce the severity of mucositis. The data presented here are based upon clinical observations. Histologic evaluation of biopsied cheek pouches corroborated these observations.
substance,measurement,setting,value
transforming growth factor-alpha [TGF-α],averaged mucositis grades (severity of mucositis),"Group III, TGF-α in Orabase 2 μg/dose (low dose), twice daily, compared among groups",best results
same,development of grade 3/4 mucositis,"Group III, TGF-α in Orabase 2 μg/dose, twice daily",did not develop
same,day of development of grade 3/4 mucositis,"Group IV, TGF-α in Orabase 20 μg/dose, twice daily",9 days
same,onset of mucositis (development of grade 3 and 4 mucositis),TGF-α groups vs Group I (none) and Group II (Orabase only),delayed the onset of mucositis
same,averaged mucositis grades (severity of mucositis),"groups receiving TGF-α in Orabase (2 or 20 μg/dose), topical to cheek pouch twice daily, 18 day period, vs control groups",lower overall scores
